Values quoted from earlier work in paper PMC11915028 (ACS Pharmacology & Translational Science, 2025).

Molecular target: PSMA expression in PCa lesions (Homo sapiens, UniProt Q04609)
Excerpt: High tumor-to-background ratios are required for the detection of small cancer/metastatic lesions. The required ratio is ∼10 for the detection of lesions with about 1 cm diameter, but for the detection of smaller lesions (0.3 cm), the required ratio should be almost 90.[30]

Sequence of PSMA expression in PCa lesions (Q04609 whole entry): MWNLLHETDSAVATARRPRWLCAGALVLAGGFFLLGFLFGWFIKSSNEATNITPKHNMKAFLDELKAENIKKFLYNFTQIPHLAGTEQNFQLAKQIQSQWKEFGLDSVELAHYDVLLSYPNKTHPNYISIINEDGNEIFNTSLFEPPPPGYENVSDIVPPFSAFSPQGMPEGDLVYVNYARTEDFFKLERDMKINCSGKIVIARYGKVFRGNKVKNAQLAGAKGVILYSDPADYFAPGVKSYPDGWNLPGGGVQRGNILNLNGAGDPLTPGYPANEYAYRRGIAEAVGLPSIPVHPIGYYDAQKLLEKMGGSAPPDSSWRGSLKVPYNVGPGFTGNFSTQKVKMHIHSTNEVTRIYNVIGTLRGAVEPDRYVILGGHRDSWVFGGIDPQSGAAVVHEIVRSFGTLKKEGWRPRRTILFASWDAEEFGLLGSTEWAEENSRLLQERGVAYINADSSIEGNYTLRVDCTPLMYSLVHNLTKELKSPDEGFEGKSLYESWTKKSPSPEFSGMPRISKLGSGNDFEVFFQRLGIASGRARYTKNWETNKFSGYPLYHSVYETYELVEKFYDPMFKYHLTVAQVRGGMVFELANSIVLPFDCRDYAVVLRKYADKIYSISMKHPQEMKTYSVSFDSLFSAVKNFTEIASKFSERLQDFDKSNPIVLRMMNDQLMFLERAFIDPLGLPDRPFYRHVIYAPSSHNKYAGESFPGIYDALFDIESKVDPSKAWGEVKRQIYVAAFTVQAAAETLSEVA

O=C([O-])CN(CCN(CC(=O)[O-])Cc1cc(CCC(=O)NCCCCCC(=O)NCCCC[C@H](NC(=O)N[C@@H](CCC(=O)O)C(=O)O)C(=O)O)ccc1[O-])Cc1cc(CCC(=O)O)ccc1[O-].[68Ga+3].[OH3+] [[^68Ga]Ga-PSMA-11]
SUVmax, local recurrences of PCa (PET, three hours post-administration): 3–39
SUVmax, normal prostate gland tissue (human, in vivo): 2−4
